In US20240290133A1, “HERBAL COMPOSITION FOR BREAST CANCER PREVENTION” (priority 2021, published 2024):
Values joined by “and” are separate entries in the source; they are usually repeats but may differ in a detail not shown here. Equal entries are not always repeated.

Test system: MCF-7 breast cancer cells
Assay: MCF-7 cell viability (PrestoBlue Cell Viability Reagent, fluorescence)
Format: cell-based, human
Settings: individual ingredients, 2 mg/0.2 ml, 24 h, single replicate wells (Table 3)
Description: In order to assess this activity, a well-established line of breast cancer cells used in cancer research was selected. MCF-7 is a widely studied cancer cell line derived from breast adenocarcinoma, it was proven to be a suitable model cell line for breast cancer investigations worldwide, including those regarding anticancer drugs.
The cells were cultured with growth medium and seeded in two 96 well plates incubated at 37 Celsius. The HCBCP solution was prepared by dissolving the powder in DPBS as per Table 1, below.
The obtained solutions were sterilized by 0.22-micron filtration.
An amount of 0.2 ml was applied in each test tube providing 2 mg of HCBCP. […]
After incubation period of 24 and 48 hours, cell viability was measured using PrestoBlue™ Cell Viability Reagent, according to manufacturer instructions.
Fluorescence was detected at excitation wavelength of 560 nm and an emission of 590 nm, using TECAN SPARK 10M microplate reader, at 24 and 48 hours after application. The fluorescence data is expressed as percentage of cell viability (%) compared to vehicle control.
Percentage of cell viability was calculated using the following formula: [(fluorescence of treated cells−mean background fluorescence)/(fluorescence of cells with vehicle control−mean background fluorescence)]×100, at 24 and 48 hours after application. […]

O=c1c(O)c(-c2ccc(O)c(O)c2)oc2cc(O)cc(O)c12 [BF 2 Q, Quercetin]
FU-background: 16881.00 FU and 16665.00 FU and 15291.00 FU and 14944.00 FU | Fluorescence units (FU): 22892 FU and 22876 FU and 21302 FU
